Earlier results as cited in patent US20140371418A1, “BIOLOGICAL SYNTHESIS OF P-AMINOBENZOIC ACID, P-AMINOPHENOL, N-(4-HYDROXYPHENYL)ETHANAMIDE AND DERIVATIVES THEREOF” (pAromatics, LLC, priority 2012, published 2014).

solubility of PABA in water: 0.072 M and about 10 g/L
SMILES: Nc1ccc(C(=O)O)cc1 [PABA, p-aminobenzoic acid]
inhibition of growth of bacteria and fungi (bacteria and fungi): inhibits growth
